Experimental data reported in ChEMBL document CHEMBL4325859, “Research advances on anticancer activities of matrine and its derivatives: An updated overview” (Eur J Med Chem, 2019).

How the values were obtained:
HT-29 [1] = test: Growth inhibition of human HT-29 cells at 0.25 mg/ml by MTT assay relative to control; type: functional; conditions: read-out: GI
D341 cell line = test: Growth inhibition of human D341 cells at 1.5 mg/ml after 72 hrs by CCK8 assay relative to control; type: functional; conditions: D341, 72 h, read-out: GI
UMR108 = test: Growth inhibition of rat UMR108 cells assessed as cell proliferation at 1 mg/ml after 24 hrs by MTT assay (reference value: 0.405 +/- 0.007%); type: functional; conditions: UMR108, 24 h, read-out: Activity
HT-29 [2] = test: Synergistic growth inhibition of human HT-29 cells at 0.25 mg/ml cotreated with 1.25 ug/ml irinotecan by MTT assay relative to control; type: functional
RPMI-8226 = test: Induction of apoptosis in human RPMI8226 cells at 1.5 g/L after 48 hrs by Annexin V-FITC/propidium iodide staining based flow cytometry (Rvb < 3%); type: functional
PC-3 = test: Induction of apoptosis in human PC3 cells assessed as late apoptotic cells at 25 mg/mL (reference value: 2.5%); type: functional
EJ = test: Antiproliferative activity against human EJ cells after 48 hrs by CCK8 assay; type: functional, cell-based
KYSE-150 cell line = test: Antiproliferative activity against human KYSE-150 cells assessed as cell viability at 2.5 mg/ml after 24 hrs by MTT assay relative to control; type: functional; conditions: KYSE-150, 24 h, read-out: Activity

## O=C1CCC[C@@H]2[C@H]3CCCN4CCC[C@@H](CN12)[C@@H]34 [MATRINE]
HT-29 [1]
  inhibition of growth at 250 µg/mL: 12.2%
D341 cell line
  inhibition of growth at 1500 µg/mL: 47.5%
UMR108
  growth at 1000 µg/mL: 0.298%
HT-29 [2]
  growth inhibition (GI): 31.08%
RPMI-8226
  Activity: 32.89%
PC-3
  Activity: 14.6%
EJ
  IC50: 5.09 mM
KYSE-150 cell line
  viability at 2500 µg/mL: 40.4%
